Results from ChEMBL document CHEMBL1140860, “Synthesis and evaluation of dihydroartemisinin and dihydroartemisitene acetal dimers showing anticancer and antiprotozoal activity” (Bioorg Med Chem, 2009).

Legend:
SW-620 = experiment: Growth inhibition of human SW620 cells after 48 hrs by sulforhodamine B assay; assay type: functional; details: SW-620, 48 h
HCT-116 = experiment: Growth inhibition of human HCT116 cells after 48 hrs by sulforhodamine B assay; assay type: functional; details: HCT-116, 48 h
[1] = Selectivity index, ratio of TC50 for african green monkey (Cercopithecus aethiops) Vero cells to IC50 for chloroquine-sensitive Plasmodium falciparum D6; assay type: toxicity, cell-based
KM12 = experiment: Growth inhibition of human KM12 cells after 48 hrs by sulforhodamine B assay; assay type: functional; details: KM12, 48 h
[2] = Cytotoxicity against african green monkey Vero cells after 48 hrs by neutral red assay; assay type: cell-based; details: chlorocebus sabaeus, read-out: TC50
OVCAR-8 = experiment: Growth inhibition of human OVCAR8 cells after 48 hrs by sulforhodamine B assay; assay type: functional; details: OVCAR-8, 48 h
IGROV-1 = experiment: Growth inhibition of human IGROV1 cells after 48 hrs by sulforhodamine B assay; assay type: functional; details: IGROV-1, 48 h
M14 = experiment: Growth inhibition of human M14 cells after 48 hrs by sulforhodamine B assay; assay type: functional; details: M14, 48 h
NCI-H322M = experiment: Growth inhibition of human NCI-H322M cells after 48 hrs by sulforhodamine B assay; assay type: functional
SF-295 = experiment: Growth inhibition of human SF295 cells after 48 hrs by sulforhodamine B assay; assay type: functional; details: SF-295, 48 h
CCRF-CEM = experiment: Growth inhibition of human CCRF-CEM cells after 48 hrs by sulforhodamine B assay; assay type: functional
[3] = Growth inhibition of human […] cells after 48 hrs by sulforhodamine B assay; assay type: functional
MDA-MB-231 = experiment: Growth inhibition of human MDA-MB-231 cells after 48 hrs by sulforhodamine B assay; assay type: functional; details: MDA-MB-231, 48 h
SF-539 = experiment: Growth inhibition of human SF539 cells after 48 hrs by sulforhodamine B assay; assay type: functional; details: SF-539, 48 h
SR = experiment: Growth inhibition of human SR cells after 48 hrs by sulforhodamine B assay; assay type: functional
MDA-MB-435 = experiment: Growth inhibition of human MDA-MB-435 cells after 48 hrs by sulforhodamine B assay; assay type: functional; details: MDA-MB-435, 48 h
UO-31 = experiment: Growth inhibition of human UO31 cells after 48 hrs by sulforhodamine B assay; assay type: functional; details: UO-31, 48 h
HT-29 = experiment: Growth inhibition of human HT-29 cells after 48 hrs by sulforhodamine B assay; assay type: functional; details: HT-29, 48 h
PC-3 = experiment: Growth inhibition of human PC3 cells after 48 hrs by sulforhodamine B assay; assay type: functional; details: PC-3, 48 h
T47D = experiment: Growth inhibition of human T47D cells after 48 hrs by sulforhodamine B assay; assay type: functional
HL-60 = experiment: Growth inhibition of human HL-60(TB) cells after 48 hrs by sulforhodamine B assay; assay type: functional; details: HL-60, 48 h
RXF 393 = experiment: Growth inhibition of human RXF393 cells after 48 hrs by sulforhodamine B assay; assay type: functional; details: RXF 393, 48 h
SK-MEL-28 = experiment: Growth inhibition of human SK-MEL-28 cells after 48 hrs by sulforhodamine B assay; assay type: functional; details: SK-MEL-28, 48 h
HCC 2998 = experiment: Growth inhibition of human HCC2998 cells after 48 hrs by sulforhodamine B assay; assay type: functional; details: HCC 2998, 48 h
NCI-H23 = experiment: Growth inhibition of human NCI-H23 cells after 48 hrs by sulforhodamine B assay; assay type: functional; details: NCI-H23, 48 h
MDA-N = experiment: Growth inhibition of human MDA-N cells after 48 hrs by sulforhodamine B assay; assay type: functional
Plasmodium falciparum [4] = experiment: Antimalarial activity after 72 hrs against chloroquine-resistant Plasmodium falciparum W2 infected erythrocytes by LDH assay; assay type: functional, organism-based; details: W2, 72 h
Plasmodium falciparum [5] = experiment: Antimalarial activity after 72 hrs against chloroquine-sensitive Plasmodium falciparum D6 infected in erythrocytes by LDH assay; assay type: functional, organism-based; details: D6, 72 h
SK-MEL-2 = experiment: Growth inhibition of human SK-MEL-2 cells after 48 hrs by sulforhodamine B assay; assay type: functional; details: SK-MEL-2, 48 h
SN12C = experiment: Growth inhibition of human SN12C cells after 48 hrs by sulforhodamine B assay; assay type: functional
U-251 = experiment: Growth inhibition of human U251 cells after 48 hrs by sulforhodamine B assay; assay type: functional; details: U-251, 48 h
K562 = experiment: Growth inhibition of human K562 cells after 48 hrs by sulforhodamine B assay; assay type: functional; details: K562, 48 h
HOP-92 = experiment: Growth inhibition of human HOP92 cells after 48 hrs by sulforhodamine B assay; assay type: functional; details: HOP-92, 48 h
HOP-62 = experiment: Growth inhibition of human HOP62 cells after 48 hrs by sulforhodamine B assay; assay type: functional; details: HOP-62, 48 h
[6] = Selectivity index, ratio of TC50 for african green monkey (Cercopithecus aethiops) Vero cells to IC50 for chloroquine-resistant Plasmodium falciparum W2; assay type: toxicity, cell-based
DU-145 = experiment: Growth inhibition of human DU145 cells after 48 hrs by sulforhodamine B assay; assay type: functional; details: DU-145, 48 h
A549 = experiment: Growth inhibition of human A549 cells after 48 hrs by sulforhodamine B assay; assay type: functional; details: A549, 48 h
SNB-19 = experiment: Growth inhibition of human SNB19 cells after 48 hrs by sulforhodamine B assay; assay type: functional; details: SNB-19, 48 h
[7] = Growth inhibition of human Hs 578T cells after 48 hrs by sulforhodamine B assay; assay type: functional
CAKI-1 = experiment: Growth inhibition of human Caki1 cells after 48 hrs by sulforhodamine B assay; assay type: functional; details: CAKI-1, 48 h
HCT-15 = experiment: Growth inhibition of human HCT15 cells after 48 hrs by sulforhodamine B assay; assay type: functional; details: HCT-15, 48 h
786-0 = experiment: Growth inhibition of human 786-0 cells after 48 hrs by sulforhodamine B assay; assay type: functional; details: 786-0, 48 h
OVCAR-4 = experiment: Growth inhibition of human OVCAR4 cells after 48 hrs by sulforhodamine B assay; assay type: functional; details: OVCAR-4, 48 h
ACHN = experiment: Growth inhibition of human ACHN cells after 48 hrs by sulforhodamine B assay; assay type: functional
TK-10 = experiment: Growth inhibition of human TK10 cells after 48 hrs by sulforhodamine B assay; assay type: functional; details: TK-10, 48 h
MOLT-4 = experiment: Growth inhibition of human MOLT4 cells after 48 hrs by sulforhodamine B assay; assay type: functional; details: MOLT-4, 48 h
SK-OV-3 = experiment: Growth inhibition of human SKOV3 cells after 48 hrs by sulforhodamine B assay; assay type: functional; details: SK-OV-3, 48 h
NCI-H460 = experiment: Growth inhibition of human NCI-H460 cells after 48 hrs by sulforhodamine B assay; assay type: functional; details: NCI-H460, 48 h
UACC-62 = experiment: Growth inhibition of human UACC62 cells after 48 hrs by sulforhodamine B assay; assay type: functional; details: UACC-62, 48 h
COLO 205 = experiment: Growth inhibition of human COLO205 cells after 48 hrs by sulforhodamine B assay; assay type: functional; details: COLO 205, 48 h
MCF7 = experiment: Growth inhibition of human MCF7 cells after 48 hrs by sulforhodamine B assay; assay type: functional; details: MCF7, 48 h
SF-268 = experiment: Growth inhibition of human SF268 cells after 48 hrs by sulforhodamine B assay; assay type: functional; details: SF-268, 48 h
A498 = experiment: Growth inhibition of human A498 cells after 48 hrs by sulforhodamine B assay; assay type: functional; details: A498, 48 h
SK-MEL-5 = experiment: Growth inhibition of human SK-MEL-5 cells after 48 hrs by sulforhodamine B assay; assay type: functional; details: SK-MEL-5, 48 h
OVCAR-5 = experiment: Growth inhibition of human OVCAR5 cells after 48 hrs by sulforhodamine B assay; assay type: functional; details: OVCAR-5, 48 h
NCI-H522 = experiment: Growth inhibition of human NCI-H522 cells after 48 hrs by sulforhodamine B assay; assay type: functional; details: NCI-H522, 48 h
BT-549 = experiment: Growth inhibition of human BT549 cells after 48 hrs by sulforhodamine B assay; assay type: functional; details: BT-549, 48 h
OVCAR-3 = experiment: Growth inhibition of human OVCAR-3 cells after 48 hrs by sulforhodamine B assay; assay type: functional; details: OVCAR-3, 48 h
Malme-3M = experiment: Growth inhibition of human MALME-3M cells after 48 hrs by sulforhodamine B assay; assay type: functional
UACC-257 = experiment: Growth inhibition of human UACC257 cells after 48 hrs by sulforhodamine B assay; assay type: functional; details: UACC-257, 48 h
NCI/ADR-RES = experiment: Growth inhibition of human NCI/ADR-RES cells after 48 hrs by sulforhodamine B assay; assay type: functional
EKVX = experiment: Growth inhibition of human EKVX cells after 48 hrs by sulforhodamine B assay; assay type: functional

SMILES: C=C1[C@@H](OCCCO[C@H]2O[C@@H]3O[C@@]4(C)CC[C@H]5[C@H](C)CC[C@@H](C2=C)[C@@]35OO4)O[C@@H]2O[C@@]3(C)CC[C@H]4[C@H](C)CC[C@@H]1[C@@]24OO3
- GI50 (SW-620): 62 nM
- GI50 (HCT-116): 27 nM
- selectivity ratio [1]: > 43
- GI50 (KM12): 94 nM
- CC50 at 48 h [2]: > 806000 nM
- GI50 (OVCAR-8): 372 nM
- GI50 (IGROV-1): 622 nM
- GI50 (M14): 205 nM
- GI50 (NCI-H322M): 11200 nM
- GI50 (SF-295): 7650 nM
- GI50 (CCRF-CEM): 97 nM
- GI50 [3]: 13 nM
- GI50 (MDA-MB-231): 13100 nM
- GI50 (SF-539): 5340 nM
- GI50 (SR): 28 nM
- GI50 (MDA-MB-435): 443 nM
- GI50 (UO-31): 181 nM
- GI50 (HT-29): 43 nM
- GI50 (PC-3): 63 nM
- GI50 (T47D): 14 nM
- GI50 (HL-60): 98 nM
- GI50 (RXF 393): 6460 nM
- GI50 (SK-MEL-28): 6070 nM
- GI50 (HCC 2998): 5980 nM
- GI50 (NCI-H23): 1070 nM
- GI50 (MDA-N): 518 nM
- IC50 (Plasmodium falciparum [4]): 5100 nM
- IC50 (Plasmodium falciparum [5]): 18600 nM
- GI50 (SK-MEL-2): 3140 nM
- GI50 (SN12C): 7300 nM
- GI50 (U-251): 288 nM
- GI50 (K562): 50 nM
- GI50 (HOP-92): 745 nM
- GI50 (HOP-62): 6880 nM
- selectivity ratio [6]: > 159
- GI50 (DU-145): 7590 nM
- GI50 (A549): 5330 nM
- GI50 (SNB-19): 11100 nM
- GI50 [7]: 74 nM
- GI50 (CAKI-1): 1770 nM
- GI50 (HCT-15): 12 nM
- GI50 (786-0): 346 nM
- GI50 (OVCAR-4): 73 nM
- GI50 (ACHN): 6380 nM
- GI50 (TK-10): 218 nM
- GI50 (MOLT-4): 121 nM
- GI50 (SK-OV-3): 10900 nM
- GI50 (NCI-H460): 5440 nM
- GI50 (UACC-62): 7200 nM
- GI50 (COLO 205): 122 nM
- GI50 (MCF7): 150 nM
- GI50 (SF-268): 6290 nM
- GI50 (A498): > 50000 nM
- GI50 (SK-MEL-5): 496 nM
- GI50 (OVCAR-5): 5040 nM
- GI50 (NCI-H522): 401 nM
- GI50 (BT-549): 7520 nM
- GI50 (OVCAR-3): 107 nM
- GI50 (Malme-3M): 7280 nM
- GI50 (UACC-257): 479 nM
- GI50 (NCI/ADR-RES): 533 nM
- GI50 (EKVX): 476 nM
